Test results published in patent US5525594A, “Treatment of hyperandrogenic disorders” (Roussel Uclaf, priority 1993, dated 1996).
pIC50: −log10 of the molar value.

Biological target: T1, 5α-reductase (Homo sapiens, UniProt P31213)
T1 construct: Homogenates of human prostates obtained by radical prostatectomies; from tissue; host or cells: human prostate from radical prostatectomy for benign hyperplasia; resuspended 140,000 g pellet of the homogenate
T1 sequence (P31213 1-254): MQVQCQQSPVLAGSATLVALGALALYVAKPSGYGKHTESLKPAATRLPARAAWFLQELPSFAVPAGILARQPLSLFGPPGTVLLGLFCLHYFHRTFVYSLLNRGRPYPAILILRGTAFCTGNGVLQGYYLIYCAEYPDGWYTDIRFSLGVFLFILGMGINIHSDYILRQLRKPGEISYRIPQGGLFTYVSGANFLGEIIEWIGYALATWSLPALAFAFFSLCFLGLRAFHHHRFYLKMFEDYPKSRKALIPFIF
Experiment: 5α-reductase activity test in vitro, human prostate homogenate, testosterone substrate, HPLC measurement of 5α-reduced metabolites
Format: biochemical
Details: homogenates of human prostates (BHP), pH 5.5, 37° C., 30 minutes, read-out: IC50 for inhibition of the 5α-reductase activity of the control
Experimental: The test for measuring the 5α-reductase activity was carried cut in vitro by incubating the enzyme and its substrate (testosterone) and by measuring by HPLC chromatography the amount of 5α-reduced metabolites formed (dihydrotestosterone (DHT) and 5α-androstane-diol). Homogenates of human prostates obtained by radical prostatectomies due to benign hyperplasia of the prostate (BHP) were used.
The prostate was collected straight after leaving the operating theater suite and packed in aluminum paper placed in a container filled with dry ice. At the laboratory, if the homogenate was not prepared immediately, the prostate could be stored at -80° C. […]
b) Mixture of "unlabelled" testosterone and "tritiated testosterone" with an isotopic dilution of 100: To obtain a 1 mM solution of testosterone, 2.88 mg of "unlabelled" testosterone were weighed out which was dissolved in 10 ml of ethanol. […] Substrate (S) was ready. […]
The amounts of metabolites produced during the incubation were measured by separating the compounds formed by reversed-phase high performance liquid chromatography (HPLC). […] The extract collected after extraction was injected automatically onto the HPLC system and by the linear radioactivity measurement system (Berthold), only the radioactive metabolites, formed from the testosterone labelled with the substrate, were evaluated. […]

- pIC50: 4.66
Substance: oenotheine B
